Experimental data from patent US12493040B2, “Cancer detection method using sense of smell of nematode” (HIROTSU BIO SCIENCE INC., priority 2013, dated 2025).

Test system: RNAi-treated eri-1 (mg366) nematodes
Assay: RNAi screening of olfactory receptor genes: chemotaxis assay of RNAi-treated nematodes to odorants
Type: in vivo, Caenorhabditis elegans
Conditions: low concentration of attractant
Procedure, shortened: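 eri-1 (mg366) worms knocked down by feeding RNAi (Ahringer library) on IPTG/ampicillin NGM plates with E. coli for 4 days, then tested for chemotaxis, 30–50 worms per assay. Odorants at 1 μl of 10^−3 or 10^−4 dilution, or 1 and 5 μl undiluted. Hits scored by z score, thresholds ±1.96 (P<0.05) or ±0.96.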

Compound: Cc1nc(C)c(C)s1 [trimethylthiazole]
- chemotaxis index (Control nematodes): 0.64 ± 0.015
- chemotaxis index (srh-10 RNAi-treated nematodes): 0.88
- chemotaxis index (srh-11 RNAi-treated nematodes): 0.85
- chemotaxis index (srh-15 RNAi-treated nematodes): 0.91
- chemotaxis index (srh-16 RNAi-treated nematodes): 0.49
- chemotaxis index (srh-18 RNAi-treated nematodes): 0.91
- chemotaxis index (srh-19 RNAi-treated nematodes): 0.88
- chemotaxis index (srh-22 RNAi-treated nematodes): 0.75
- chemotaxis index (srh-23 RNAi-treated nematodes): 0.78
- chemotaxis index (srh-24 RNAi-treated nematodes): 0.92
- chemotaxis index (srh-25 RNAi-treated nematodes): 0.95
- chemotaxis index (srh-27 RNAi-treated nematodes): 0.71
- chemotaxis index (srh-28 RNAi-treated nematodes): 0.92
- chemotaxis index (srh-36 RNAi-treated nematodes): 0.51
- chemotaxis index (srh-37 RNAi-treated nematodes): 0.87
- chemotaxis index (srh-39 RNAi-treated nematodes): 0.45
- chemotaxis index (srh-40 RNAi-treated nematodes): 0.73
- chemotaxis index (srh-41 RNAi-treated nematodes): 0.85
- chemotaxis index (srh-44 RNAi-treated nematodes): 0.90
- chemotaxis index (srh-45 RNAi-treated nematodes): 0.73
- chemotaxis index (srh-46 RNAi-treated nematodes): 0.83
- chemotaxis index (srh-48 RNAi-treated nematodes): 0.65
- chemotaxis index (srh-49 RNAi-treated nematodes): 0.59
- chemotaxis index (srh-50 RNAi-treated nematodes): 0.84
- chemotaxis index (srh-51 RNAi-treated nematodes): 0.64
- chemotaxis index (srh-52 RNAi-treated nematodes): 0.55
- chemotaxis index (srh-55 RNAi-treated nematodes): 0.56
- chemotaxis index (srh-59 RNAi-treated nematodes): 0.37
- chemotaxis index (srh-60 RNAi-treated nematodes): 0.79
- chemotaxis index (srh-61 RNAi-treated nematodes): 0.70
- chemotaxis index (srh-67 RNAi-treated nematodes): 0.63
- chemotaxis index (srh-68 RNAi-treated nematodes): 0.57
- chemotaxis index (srh-69 RNAi-treated nematodes): 0.75
- chemotaxis index (srh-70 RNAi-treated nematodes): 0.78
- chemotaxis index (srh-71 RNAi-treated nematodes): 0.85
- chemotaxis index (srh-72 RNAi-treated nematodes): 0.58
- chemotaxis index (srh-74 RNAi-treated nematodes): 0.44
- chemotaxis index (srh-75 RNAi-treated nematodes): 0.54
- chemotaxis index (srh-77 RNAi-treated nematodes): 0.52
- chemotaxis index (srh-79 RNAi-treated nematodes): 0.42
- chemotaxis index (srh-80 RNAi-treated nematodes): 0.39
- chemotaxis index (srh-82 RNAi-treated nematodes): 0.71
- chemotaxis index (srh-83 RNAi-treated nematodes): 0.86
- chemotaxis index (srh-97 RNAi-treated nematodes): 0.77
- chemotaxis index (srh-99 RNAi-treated nematodes): 0.65
- chemotaxis index (srh-100 RNAi-treated nematodes): 0.62
- chemotaxis index (srh-104 RNAi-treated nematodes): 0.65
- chemotaxis index (srh-105 RNAi-treated nematodes): 0.66
- chemotaxis index (srh-109 RNAi-treated nematodes): 0.76
- chemotaxis index (srh-111 RNAi-treated nematodes): 0.37
- chemotaxis index (srh-113 RNAi-treated nematodes): 0.83
- chemotaxis index (srh-115 RNAi-treated nematodes): 0.47
- chemotaxis index (srh-116 RNAi-treated nematodes): 0.56
- chemotaxis index (srh-118 RNAi-treated nematodes): 0.73
- chemotaxis index (srh-119 RNAi-treated nematodes): 0.71
- chemotaxis index (srh-120 RNAi-treated nematodes): 0.72
- chemotaxis index (srh-122 RNAi-treated nematodes): 0.44
- chemotaxis index (srh-123 RNAi-treated nematodes): 0.56
- chemotaxis index (srh-125 RNAi-treated nematodes): 0.70
- chemotaxis index (srh-128 RNAi-treated nematodes): 0.62
- chemotaxis index (srh-129 RNAi-treated nematodes): 0.69
- chemotaxis index (srh-130 RNAi-treated nematodes): 0.70
- chemotaxis index (srh-214 RNAi-treated nematodes): 0.78
- chemotaxis index (srh-216 RNAi-treated nematodes): 0.73
- chemotaxis index (srh-217 RNAi-treated nematodes): 0.60
- chemotaxis index (srh-220 RNAi-treated nematodes): 0.52
- chemotaxis index (srh-222 RNAi-treated nematodes): 0.58
- chemotaxis index (srh-223 RNAi-treated nematodes): 0.76
- chemotaxis index (srh-227 RNAi-treated nematodes): 0.76
- chemotaxis index (srh-229 RNAi-treated nematodes): 0.69
- chemotaxis index (srh-233 RNAi-treated nematodes): 0.38
- chemotaxis index (srh-235 RNAi-treated nematodes): 0.58
- chemotaxis index (srh-236 RNAi-treated nematodes): 0.64
- chemotaxis index (srh-239 RNAi-treated nematodes): 0.84
- chemotaxis index (srh-241 RNAi-treated nematodes): 0.85
- chemotaxis index (srh-243 RNAi-treated nematodes): 0.63
- chemotaxis index (srh-244 RNAi-treated nematodes): 0.76
- chemotaxis index (srh-247 RNAi-treated nematodes): 0.54
- chemotaxis index (srh-250 RNAi-treated nematodes): 0.58
- chemotaxis index (srh-251 RNAi-treated nematodes): 0.64
- chemotaxis index (srh-252 RNAi-treated nematodes): 0.64
- chemotaxis index (srh-258 RNAi-treated nematodes): 0.75
- chemotaxis index (srh-261 RNAi-treated nematodes): 0.72
- chemotaxis index (srh-264 RNAi-treated nematodes): 0.74
- chemotaxis index (srh-266 RNAi-treated nematodes): 0.25
- chemotaxis index (srh-274 RNAi-treated nematodes): 0.60
- chemotaxis index (srh-275 RNAi-treated nematodes): 0.53
- chemotaxis index (srh-276 RNAi-treated nematodes): 0.59
- chemotaxis index (srh-277 RNAi-treated nematodes): 0.65
- chemotaxis index (srh-279 RNAi-treated nematodes): 0.61
- chemotaxis index (srh-281 RNAi-treated nematodes): 0.55
- chemotaxis index (srh-282 RNAi-treated nematodes): 0.79
- chemotaxis index (srh-283 RNAi-treated nematodes): 0.56
- chemotaxis index (srh-284 RNAi-treated nematodes): 0.59
- chemotaxis index (srh-291 RNAi-treated nematodes): 0.91
- chemotaxis index (srh-292 RNAi-treated nematodes): 0.78
- chemotaxis index (srh-293 RNAi-treated nematodes): 0.82
- chemotaxis index (srh-297 RNAi-treated nematodes): 0.56
- chemotaxis index (srh-298 RNAi-treated nematodes): 0.82
- chemotaxis index (srh-308 RNAi-treated nematodes): 0.30
